Experimental data reported in article PMC9007462 (Journal of Medicinal Chemistry, 2022).

Legend:
Human ALDH3A1 = target: T1, Human ALDH3A1 (Homo sapiens, UniProt P30838); test: ALDH3A1 inhibition, IC50, Ki and type of inhibition; type: biochemical; settings: for IC50: 31 μM 4-NBA as substrate
T1 construct: made in house
T1 sequence (P30838 1-453): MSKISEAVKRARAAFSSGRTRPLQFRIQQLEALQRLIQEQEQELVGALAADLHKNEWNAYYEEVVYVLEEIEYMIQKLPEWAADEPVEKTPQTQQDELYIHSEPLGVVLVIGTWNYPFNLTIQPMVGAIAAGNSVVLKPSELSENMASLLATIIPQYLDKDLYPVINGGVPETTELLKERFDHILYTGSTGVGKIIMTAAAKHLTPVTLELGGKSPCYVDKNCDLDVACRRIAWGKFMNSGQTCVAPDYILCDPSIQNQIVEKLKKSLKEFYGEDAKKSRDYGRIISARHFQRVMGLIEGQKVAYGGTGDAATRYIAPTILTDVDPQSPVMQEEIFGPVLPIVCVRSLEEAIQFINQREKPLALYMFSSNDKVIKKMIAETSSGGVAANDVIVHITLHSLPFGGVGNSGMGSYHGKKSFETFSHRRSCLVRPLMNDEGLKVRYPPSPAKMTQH
Experimental: Human ALDH1A1, ALDH1A3, and ALDH3A1 were cloned and recombinantly expressed from the pET-30 Xa/LIC vector. Protein purification was achieved by affinity chromatography on a nickel-charged chelating Sepharose Fast Flow 5-mL column (His Trap column, Cytiva), which specifically binds the protein due to its N-terminal (His)6 tag, using an ÄKTA FPLC system (Cytiva), as previously described.[55] Enzymes including the His tag were stored at −80 °C in 20 mM Tris/HCl and 0.5 M NaCl, pH 8.0, until use. Reaction buffers were as follows: ALDH1A1 was assayed in 50 mM HEPES, 0.5 mM EDTA, and 0.5 mM DTT, pH 8.0; ALDH1A3 was assayed in 50 mM HEPES, 30 mM MgCl2, and 5 mM DTT, pH 8.0; and ALDH3A1 was assayed in 50 mM Tris–HCl and 5 mM DTT, pH 8.0. Activity under standard conditions was measured fluorimetrically at 25 °C using a Cary Eclipse (Varian) fluorimeter to follow the purification procedure and to check the enzyme concentration before each kinetic experiment. The fluorescence of NADH was characterized at 460 nm with excitation at 340 nm, and 5 μM NAD(P)H was added as an internal standard to obtain the absolute reaction rates.[55] Standard activity was measured at saturating concentrations of substrate using 30 μM hexanal (ALDH1A1), 250 μM hexanal (ALDH1A3), or 250 μM 4-NBA (ALDH3A1). NAD^+ was 500 μM for ALDH1A1 and ALDH1A3, and NADP^+ was 1 mM for ALDH3A1.
In order to determine the IC50 values, reaction rates were determined at various concentrations of inhibitor at a fixed concentration of substrate. As substrates for ALDH1A1, ALDH1A3, and ALDH3A1, 5 μM hexanal, 6 μM hexanal, and 31 μM 4-NBA, respectively, were used. The IC50 values were calculated by nonlinear fitting of the obtained data to a sigmoidal plot using GraFit 5.0 (Erithacus software), with the following 4-parameter equation [drawing 2] , where y is the specific activity, x is the inhibitor concentration, background is the minimum y value, range is the fitted uninhibited value minus the background, and s is the slope factor. Values are expressed as the mean ± SE.
Activity assays to determine the type of inhibition and Ki value were performed using various substrate and inhibitor concentrations maintaining the same conditions as for the IC50 experiments and using GraFit 5.0 for data processing. The data of enzymatic activities at different inhibitor concentrations were fitted to the Michaelis–Menten equation to determine the values of Km and Vmax. Next, results were fitted to the equations for competitive, given by [drawing 3]; noncompetitive, given by [drawing 4]; uncompetitive, given by [drawing 5]; and mixed, given by [drawing 6] .[56] The type of inhibition was selected based on the lowest error value. Parameters were expressed as the mean ± SE.

PC3 = test: MTT chemosensitivity assay, PC3; type: cell-based, human; settings: Homo sapiens, PC-3, 96 h exposure, ± SD, at least three independent experiments
DU145 = test: MTT chemosensitivity assay, DU145; type: cell-based, human; settings: Homo sapiens, DU-145, 96 h exposure, ± SD, at least three independent experiments

| SMILES | IC50 (Human ALDH3A1; mean ± SE) | IC50 (PC3) | IC50 (DU145) | type of inhibition ALDH3A1 (Human ALDH3A1; 4-NBA as substrate) | Ki (Human ALDH3A1; 4-NBA as substrate, fit to competitive inhibition equation, mean ± SE) | IC50 with versus without preincubation with the cofactor NADP+ (Human ALDH3A1; 5-min preincubation) |
| --- | --- | --- | --- | --- | --- | --- |
| CCCN(CCC)c1ccc(C=O)cc1Br [Compound 14, 3-Bromo-4-(dipropylamino)benzaldehyde] | 8 ± 1.56 µM | 47 ± 6 µM | 61 ± 5 µM |  |  |  |
| CCCN(CCC)c1ccc(C=O)cc1[N+](=O)[O-] [Compound 18, 4-(Dipropylamino)-3-Nitrobenzaldehyde] | 1.61 ± 0.17 µM | 98 ± 12 µM | 100 ± 13 µM | competitive | 0.3 ± 0.06 µM | no differences were observed |
